Assay results from patent US20060276393A1, “Novel compositions for preventing and treating neurodegenerative and blood coagulation disorders” (Sirtris Pharmaceuticals, Inc., priority 2005, published 2006).

Experiments:
D. melanogaster = D. melanogaster lifespan; format: in vivo
Protocol: Females (a) and males (b) with loss-of-function genotype dSir2^4.5/dSir2^5.26. Females (c) and males (d) with strong hypomorphic genotype dSir2^17/dSir2^KG00871.
Survival assays were conducted independently with adult D. melanogaster in two laboratories. In the first laboratory, all trials used an yw marked wild-type strain. Larvae were reared on standard cornmeal-sugar-yeast (CSY) agar diet (cornmeal 5%, sucrose 10.5%, SAF yeast 2%, and agar 0.7%). Newly eclosed adults were placed in 1 L demography cages with approximately 75 males and 75 females. Three to four replicate 1 L demography cages were used for each treatment group in each trial. Every two days, dead flies were removed and scored, and food vials were replenished. Food vials contained cornmeal-sugar-yeast diet with SAF yeast as either 2% or 3% by weight. Test compounds in 100 μl of EtOH (or blank EtOH in controls) were mixed into melted aliquots of the adult food media to make a final concentration of 0, 10 or 100 μM. Fresh stock solutions and adult media were prepared weekly. In the second laboratory, lifespan trials were conducted with the wild type strain Canton-S, dSir2^4.5 and dSir2^5.26 (S. Smolik, University of Oregon), dSir2^17 (S. Astrom, Stockholm University, Sweden), and dSir2^KG00871 (Drosophila Stock Center, Bloomington, Ind.). Larvae for all tests were reared on standard cornmeal-sugar-yeast diet. Newly eclosed adults were incubated in plastic shell vials containing 5 ml of 15% sugar-yeast diet (15% SY) or 5% sugar-yeast (5% SY) diet (15% SY: 15% yeast, 15% sucrose, 2% agar; 5% SY: 5% yeast, 5% sucrose, 2% agar as per Ref. ^20). In all trials, ˜20 males with ˜20 females were placed into each of 10 vials/treatment group. Every two days, flies were passed into new vials and dead flies were counted. […] Final compound concentrations were 0, 10, 100 or 200 μM. Fresh stock solution and adult media was prepared weekly.

S. cerevisiae = experiment: Yeast replicative lifespan; format: cell-based; conditions: for Average lifespan, growth on resveratrol: wild type untreated 21.0

Oc1ccc(/C=C/c2cc(O)cc(O)c2)cc1 [Resveratrol, 3,5,4′-Trihydroxy-trans-stilbene]
increased lifespan (maximum) (D. melanogaster; Canton-S/dSir2^KG0087): up to 17% | lifespan in flies lacking or severely decreased in dSir2 (D. melanogaster; dSir2^4.5/dSir2^5.26 or dSir2^17/dSir2^KG00871, 100 μM): failed to extend lifespan | longevity in flies homozygous for a hypomorphic dSir2 allele (D. melanogaster; dSir2^KG0087/dSir2^KG0087): a small but statistically significant amount | longevity on restricted diet (D. melanogaster; restricted diet): neither resveratrol nor fisetin further increased longevity | lifespan extended (maximum) (D. melanogaster; wild type Canton-S and yw, males and females, normal diet): up to 29% | increase of average lifespan (S. cerevisiae; 10 μM): 70% | maximum lifespan (in words) (S. cerevisiae; 10 μM): significantly increased maximum lifespan | Average lifespan (S. cerevisiae; 10 μM compound, 2% glucose medium, wild type untreated 22.9): 36.8 generations | Average lifespan, growth on resveratrol (S. cerevisiae; 10 μM): 35.7 generations | Average lifespan, growth on resveratrol (S. cerevisiae; 100 μM): 29.4 generations | Average lifespan, growth on resveratrol (S. cerevisiae; 500 μM): 29.3 generations | Average lifespan, glucose-restricted+resveratrol (CR+R) (S. cerevisiae; glucose restriction): 39.9 generations | Average lifespan, pnc1Δ+resveratrol (S. cerevisiae; pnc1Δ untreated 19.2): 33.1 generations | Average lifespan, sir2Δ+resveratrol (S. cerevisiae; sir2Δ untreated 9.9): 10.0 generations | Average lifespan, wild type+resveratrol (wt+R) (S. cerevisiae; wild type untreated 19.0): 37.8 generations
